From US12378231B2, “Small molecules as monoacylglycerol lipase (MAGL) inhibitors, compositions and use thereof” (APOGEE PHARMACEUTICALS, INC., priority 2023, dated 2025)
Read-outs that look alike come from different tables or passages of the source.

How the values were obtained:
human recombinant MAGL = human recombinant MAGL (Homo sapiens (Human), UniProt Q99685); assay: In vitro inhibition of human recombinant MAGL activity (Cayman inhibitor screening kit, 4-nitrophenylacetate hydrolysis); type: biochemical
From the text: The inhibitory effect of the synthetic chemicals on activity of human recombinant MAGL was studied using commercial inhibitor screening kit (Cayman Chemical). […] The absorbance of the yellow product can be analyzed using the plate reader. […]

human recombinant FAAH = human recombinant FAAH (Homo sapiens (Human), UniProt O00519); assay: In vitro inhibition of human recombinant FAAH activity (Cayman FAAH inhibitor screening kit, AMC arachidonoyl amide hydrolysis); type: biochemical
From the text: In brief, FAAH hydrolyzes AMC arachidonoyl amide resulting in the release of the fluorescent product, while the inhibitor will inhibit the FAAH activity and thus reduce the fluorescent signal.

[1] = human recombinant MAGL, read-out: Inhibition on MAGL activity (IC50)

human recombinant FAAH, sequence (O00519 whole entry): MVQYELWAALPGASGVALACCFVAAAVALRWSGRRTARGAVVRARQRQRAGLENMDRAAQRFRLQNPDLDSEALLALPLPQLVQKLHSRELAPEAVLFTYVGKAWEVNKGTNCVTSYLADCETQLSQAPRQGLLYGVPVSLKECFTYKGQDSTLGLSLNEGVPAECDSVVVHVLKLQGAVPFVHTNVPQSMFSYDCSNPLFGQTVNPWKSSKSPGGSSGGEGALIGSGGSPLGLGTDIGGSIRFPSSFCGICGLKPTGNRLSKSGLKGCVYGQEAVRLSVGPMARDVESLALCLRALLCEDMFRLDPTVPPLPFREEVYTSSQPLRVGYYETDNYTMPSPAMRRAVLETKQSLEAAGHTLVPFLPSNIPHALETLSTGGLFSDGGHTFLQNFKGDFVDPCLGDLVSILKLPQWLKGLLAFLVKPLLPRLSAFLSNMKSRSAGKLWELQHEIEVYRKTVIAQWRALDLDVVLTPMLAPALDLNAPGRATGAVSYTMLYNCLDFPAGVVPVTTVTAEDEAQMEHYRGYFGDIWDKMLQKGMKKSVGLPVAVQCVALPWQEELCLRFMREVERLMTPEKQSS
human recombinant MAGL, sequence (Q99685 whole entry): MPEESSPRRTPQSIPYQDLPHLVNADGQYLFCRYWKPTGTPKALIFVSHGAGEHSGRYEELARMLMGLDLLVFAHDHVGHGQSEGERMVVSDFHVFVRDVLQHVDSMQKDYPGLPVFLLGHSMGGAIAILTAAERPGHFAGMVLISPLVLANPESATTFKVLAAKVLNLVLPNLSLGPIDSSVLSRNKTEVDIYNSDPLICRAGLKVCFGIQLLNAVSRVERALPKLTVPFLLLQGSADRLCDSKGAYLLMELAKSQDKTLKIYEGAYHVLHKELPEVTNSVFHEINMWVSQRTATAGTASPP

Molecule | IC50 (human recombinant MAGL; [1]) | IC50 (human recombinant FAAH) | IC50 (human recombinant MAGL)
O=C(OC(C(F)(F)F)C(F)(F)F)N1CCN(C(c2ccc3c(c2)COCO3)c2ccc3c(c2)COCO3)CC1 [Example 3, 1,1,1,3,3,3-hexafluoropropan-2-yl 4-(bis(4H-benzo[d][1,3]dioxin-6-yl)methyl)piperazine-1-carboxylate] | 1 to 20 nM | > 50000 nM | 
O=C(Oc1ccc([N+](=O)[O-])cc1)N1CCN(C(c2ccc3c(c2)COCO3)c2ccc3c(c2)COCO3)CC1 [Example 4, 4-nitrophenyl 4-(bis(4H-benzo[d][1,3]dioxin-6-yl)methyl)piperazine-1-carboxylate] |  | > 10000 nM | 100 to 1000 nM
O=C(Oc1ccc(F)cc1)N1CCN(C(c2ccc3c(c2)COCO3)c2ccc3c(c2)COCO3)CC1 [Example 5, 4-fluorophenyl 4-(bis(4H-benzo[d][1,3]dioxin-6-yl)methyl)piperazine-1-carboxylate] | > 100 nM | > 50000 nM | 
O=C(ON1C(=O)CCC1=O)N1CCN(C(c2ccc3c(c2)COCO3)c2ccc3c(c2)COCO3)CC1 [Example 6, 2,5-dioxopyrrolidin-1-yl 4-(bis(4H-benzo[d][1,3]dioxin-6-yl)methyl)piperazine-1-carboxylate] | > 100 nM | > 50000 nM | 
O=C(Oc1ccc(Oc2ccccc2)cc1)N1CCN(C(c2ccc3c(c2)COCO3)c2ccc3c(c2)COCO3)CC1 [Example 7, 4-phenoxyphenyl 4-(bis(4H-benzo[d][1,3]dioxin-6-yl)methyl)piperazine-1-carboxylate] | > 100 nM | > 10000 nM | 
CCN(C(=O)N1CCN(C(c2ccc3c(c2)COCO3)c2ccc3c(c2)COCO3)CC1)C(C)C [Example 11, 4-(bis(4H-benzo[d][1,3]dioxin-6-yl)methyl)-N-ethyl-N-isopropylpiperazine-1-carboxamide] | > 100 nM | > 50000 nM | 
O=C(Oc1ccc2c(c1)CCC2)N1CCN(C(c2ccc3c(c2)COCO3)c2ccc3c(c2)COCO3)CC1 [Example 12, 2,3-dihydro-1H-inden-5-yl 4-(bis(4H-benzo[d][1,3]dioxin-6-yl)methyl)piperazine-1-carboxylate] | > 100 nM | > 10000 nM | 
O=C(Oc1ccc([N+](=O)[O-])cc1[N+](=O)[O-])N1CCN(C(c2ccc3c(c2)COCO3)c2ccc3c(c2)COCO3)CC1 [Example 13, 2,4-dinitrophenyl 4-(bis(4H-benzo[d][1,3]dioxin-6-yl)methyl)piperazine-1-carboxylate] | > 100 nM | > 10000 nM | 
COc1ccc(OC(=O)N2CCN(C(c3ccc4c(c3)COCO4)c3ccc4c(c3)COCO4)CC2)cc1 [Example 14, 4-methoxyphenyl 4-(bis(4H-benzo[d][1,3]dioxin-6-yl)methyl)piperazine-1-carboxylate] | > 100 nM | > 50000 nM | 
CCC(CC)OC(=O)N1CCN(C(c2ccc3c(c2)COCO3)c2ccc3c(c2)COCO3)CC1 [Example 15, pentan-3-yl 4-(bis(4H-benzo[d][1,3]dioxin-6-yl)methyl)piperazine-1-carboxylate] | > 100 nM | > 50000 nM | 
O=C(OC1CCCCC1)N1CCN(C(c2ccc3c(c2)COCO3)c2ccc3c(c2)COCO3)CC1 [Example 16, cyclohexyl 4-(bis(4H-benzo[d][1,3]dioxin-6-yl)methyl)piperazine-1-carboxylate] | > 100 nM | > 50000 nM | 
O=C(N1CCCCC1)N1CCN(C(c2ccc3c(c2)COCO3)c2ccc3c(c2)COCO3)CC1 [Example 17, (4-(bis(4H-benzo[d][1,3]dioxin-6-yl)methyl)piperazin-1-yl)(piperidin-1-yl)methanone] | > 100 nM | > 50000 nM | 
CCN(CC)C(=O)N1CCN(C(c2ccc3c(c2)COCO3)c2ccc3c(c2)COCO3)CC1 [Example 18, 4-(bis(4H-benzo[d][1,3]dioxin-6-yl)methyl)-N,N-diethylpiperazine-1-carboxamide] | > 100 nM | > 50000 nM | 
NC(=O)c1cccc(-c2cccc(OC(=O)NC3CCCCC3)c2)c1 [URB597, reference compound] | > 50000 nM |  | 

Second part, led by results:

IC50 (human recombinant MAGL; [1]) | IC50 (human recombinant FAAH) | Molecule | IC50 (human recombinant MAGL)
1 to 10 nM | ~10000 nM | 1-(4-((2,3-dihydrobenzo[b][1,4]dioxin-6-yl)(4-methoxyphenyl)methyl)piperazine-1-carbonyl)-1H-benzo[d][1,2,3]triazole-6-carbonitrile and 1-(4-((2,3-dihydrobenzo[b][1,4]dioxin-6-yl)(4-methoxyphenyl)methyl)piperazine-1-carbonyl)-1H-benzo[d][1,2,3]triazole-5-carbonitrile [Example 106] | 
1 to 10 nM | 1000 to 10000 nM | 1-(4-((4-methoxyphenyl)(pyridin-3-yl)methyl)piperazine-1-carbonyl)-1H-benzo[d][1,2,3]triazole-6-carbonitrile and 1-(4-((4-methoxyphenyl)(pyridin-3-yl)methyl)piperazine-1-carbonyl)-1H-benzo[d][1,2,3]triazole-5-carbonitrile [Example 103] | 
1 to 10 nM | > 50000 nM | 1-(4-(bis(2,3-dihydrobenzo[b][1,4]dioxin-6-yl)methyl)piperazine-1-carbonyl)-1H-benzo[d][1,2,3]triazole-6-carbonitrile and 1-(4-(bis(2,3-dihydrobenzo[b][1,4]dioxin-6-yl)methyl)piperazine-1-carbonyl)-1H-benzo[d][1,2,3]triazole-5-carbonitrile [Example 91] | 
10 to 1000 nM | > 10000 nM | 1-(4-(di(pyridin-3-yl)methyl)piperazine-1-carbonyl)-1H-benzo[d][1,2,3]triazole-6-carbonitrile and 1-(4-(di(pyridin-3-yl)methyl)piperazine-1-carbonyl)-1H-benzo[d][1,2,3]triazole-5-carbonitrile [Example 105] | 
 | > 50000 nM | O=C(OC(C(F)(F)F)C(F)(F)F)N1CCN(Cc2ccc(C(F)(F)F)cc2N2CCCC2)CC1 [ABX-1431] | 
> 100 nM | > 50000 nM | O=C(N1CCN(C(c2ccc3c(c2)COCO3)c2ccc3c(c2)COCO3)CC1)n1cccn1 [Example 1, (4-(bis(4H-benzo[d][1,3]dioxin-6-yl)methyl)piperazin-1-yl)(1H-pyrazol-1-yl)methanone] | 
1 to 10 nM | > 10000 nM | O=C(N1CCN(C(c2ccc3c(c2)COCO3)c2ccc3c(c2)COCO3)CC1)n1cnc(Cl)n1 [Example 2, (4-(bis(4H-benzo[d][1,3]dioxin-6-yl)methyl)piperazin-1-yl)(3-chloro-1H-1,2,4-triazol-1-yl)methanone] | 
1 to 20 nM | > 20000 nM | O=C(N1CCN(C(c2ccc3c(c2)COCO3)c2ccc3c(c2)COCO3)CC1)n1nnc2ccccc21 [Example 8, (1H-benzo[d][1,2,3]triazol-1-yl)(4-(bis(4H-benzo[d][1,3]dioxin-6-yl)methyl)piperazin-1-yl)methanone] | 
> 100 nM | > 10000 nM | O=C(N1CCN(C(c2ccc3c(c2)COCO3)c2ccc3c(c2)COCO3)CC1)n1ccnc1 [Example 9, (4-(bis(4H-benzo[d][1,3]dioxin-6-yl)methyl)piperazin-1-yl)(1H-imidazol-1-yl)methanone] | 
10 to 100 nM | 1000 to 10000 nM | O=C(N1CCN(C(c2ccc3c(c2)COCO3)c2ccc3c(c2)COCO3)CC1)n1cncn1 [Example 10, (4-(bis(4H-benzo[d][1,3]dioxin-6-yl)methyl)piperazin-1-yl)(1H-1,2,4-triazol-1-yl)methanone] | 
